“And” between values parts separate entries of the source, which are not always exact repeats. Equal values may be shown once. Inconclusive results and toxic doses are left out.
Tested on: L1210 leukemia ip in BDF1 mice, survival T/C
Test: NCI In Vivo Anticancer Drug Screen. Data for tumor model L1210 Leukemia (intraperitoneal) in B6D2F1 (BDF1) mice
Conditions: higher = longer survival
How it was run: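 Read-out is survival time, reported as the treated-group measurement over the vehicle-control measurement.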

[1] = endpoint: mean survival time, dose: 100.0 mg/kg/injection, schedule: Q04DX003 (ip), vehicle: saline with Tween-80
[2] = endpoint: mean survival time, dose: 200.0 mg/kg/injection, schedule: Q04DX003 (ip), vehicle: saline with Tween-80

O=C(NC1CCC(NC(=O)N2CC2)CC1)N1CC1 (stereo not drawn)
T/C (endpoint: mean survival time, dose: 0.12 mg/kg/injection, schedule: Q01DX009 (ip), vehicle: carboxymethylcellulose (CMC)): 116 % of control
T/C (endpoint: mean survival time, dose: 0.29 mg/kg/injection, schedule: Q01DX009 (ip), vehicle: carboxymethylcellulose (CMC)): 120 % of control
T/C (endpoint: mean survival time, dose: 0.8 mg/kg/injection, schedule: Q01DX009 (ip), vehicle: carboxymethylcellulose (CMC)): 164 % of control
T/C (endpoint: mean survival time, dose: 1.0 mg/kg/injection, schedule: Q01DX009 (ip), vehicle: carboxymethylcellulose (CMC)): 118 % of control
T/C (endpoint: mean survival time, dose: 1.2 mg/kg/injection, schedule: Q01DX009 (ip), vehicle: carboxymethylcellulose (CMC)): 164 % of control
T/C (endpoint: mean survival time, dose: 1.3 mg/kg/injection, schedule: Q01DX001 (ip), vehicle: carboxymethylcellulose (CMC)): 114 % of control and 115 % of control
T/C (endpoint: mean survival time, dose: 1.3 mg/kg/injection, schedule: Q01DX009 (ip), vehicle: carboxymethylcellulose (CMC)): 94 % of control
T/C (endpoint: mean survival time, dose: 1.8 mg/kg/injection, schedule: Q01DX009 (ip), vehicle: carboxymethylcellulose (CMC)): 170 % of control
T/C (endpoint: mean survival time, dose: 2.0 mg/kg/injection, schedule: Q01DX001 (ip), vehicle: carboxymethylcellulose (CMC)): 112 % of control and 123 % of control
T/C (endpoint: mean survival time, dose: 2.0 mg/kg/injection, schedule: Q01DX009 (ip), vehicle: carboxymethylcellulose (CMC)): 94 % of control
T/C (endpoint: mean survival time, dose: 2.5 mg/kg/injection, schedule: Q01DX009 (ip), vehicle: carboxymethylcellulose (CMC)): 120 % of control
T/C (endpoint: mean survival time, dose: 3.0 mg/kg/injection, schedule: Q01DX001 (ip), vehicle: carboxymethylcellulose (CMC)): 119 % of control
T/C (endpoint: mean survival time, dose: 3.37 mg/kg/injection, schedule: Q01DX009 (ip), vehicle: carboxymethylcellulose (CMC)): 97 % of control
T/C (endpoint: mean survival time, dose: 4.5 mg/kg/injection, schedule: Q01DX001 (ip), vehicle: carboxymethylcellulose (CMC)): 151 % of control

O=C(c1cccnc1)n1cc2c(n1)C1=C(CCCC1)CC2
T/C (endpoint: mean survival time, dose: 100.0 mg/kg/injection, schedule: Q04DX003 (ip), vehicle: Klucel (hydroxypropylcellulose) (HPC)): 90 % of control
T/C (endpoint: mean survival time, dose: 200.0 mg/kg/injection, schedule: Q04DX003 (ip), vehicle: Klucel (hydroxypropylcellulose) (HPC)): 89 % of control
T/C (endpoint: mean survival time, dose: 400.0 mg/kg/injection, schedule: Q04DX003 (ip), vehicle: Klucel (hydroxypropylcellulose) (HPC)): 86 % of control

COc1ccc(C(CCl)(CCl)c2ccc(OC)cc2)cc1
T/C (endpoint: mean survival time, dose: 100.0 mg/kg/injection, schedule: Q01DX009 (ip), vehicle: gum acacia): 110 % of control
T/C (endpoint: mean survival time, dose: 100.0 mg/kg/injection, schedule: Q04DX003 (ip), vehicle: gum acacia): 92 % of control
T/C (endpoint: mean survival time, dose: 200.0 mg/kg/injection, schedule: Q01DX009 (ip), vehicle: gum acacia): 98 % of control
T/C (endpoint: mean survival time, dose: 200.0 mg/kg/injection, schedule: Q04DX003 (ip), vehicle: gum acacia): 101 % of control
T/C (endpoint: mean survival time, dose: 400.0 mg/kg/injection, schedule: Q01DX009 (ip), vehicle: gum acacia): 93 % of control
T/C (endpoint: mean survival time, dose: 400.0 mg/kg/injection, schedule: Q04DX003 (ip), vehicle: gum acacia): 103 % of control

COCC(O)CCl (stereo not drawn)
T/C (endpoint: mean survival time, dose: 25.0 mg/kg/injection, schedule: Q01DX009 (ip), vehicle: saline with Tween-80): 113 % of control
T/C (endpoint: mean survival time, dose: 50.0 mg/kg/injection, schedule: Q01DX009 (ip), vehicle: saline with Tween-80): 113 % of control
T/C (endpoint: mean survival time, dose: 100.0 mg/kg/injection, schedule: Q01DX009 (ip), vehicle: saline with Tween-80): 113 % of control

CC(C)(NC(=O)NCCCl)c1ccccc1
T/C (endpoint: mean survival time, dose: 100.0 mg/kg/injection, schedule: Q01DX001 (ip), vehicle: saline): 96 % of control

CCCCOP(=O)(N1CC1CC)N1CC1CC (stereo not drawn)
T/C (endpoint: mean survival time, dose: 6.25 mg/kg/injection, schedule: Q01DX009 (ip), vehicle: other): 99 % of control
T/C (endpoint: mean survival time, dose: 6.25 mg/kg/injection, schedule: Q04DX003 (ip), vehicle: other): 95 % of control
T/C (endpoint: mean survival time, dose: 12.5 mg/kg/injection, schedule: Q01DX009 (ip), vehicle: other): 95 % of control
T/C (endpoint: mean survival time, dose: 12.5 mg/kg/injection, schedule: Q04DX003 (ip), vehicle: other): 97 % of control
T/C (endpoint: mean survival time, dose: 25.0 mg/kg/injection, schedule: Q01DX009 (ip), vehicle: other): 92 % of control
T/C (endpoint: mean survival time, dose: 25.0 mg/kg/injection, schedule: Q04DX003 (ip), vehicle: other): 92 % of control
T/C (endpoint: mean survival time, dose: 50.0 mg/kg/injection, schedule: Q04DX003 (ip), vehicle: other): 94 % of control
T/C (endpoint: mean survival time, dose: 100.0 mg/kg/injection, schedule: Q04DX003 (ip), vehicle: other): 95 % of control

CCSC(=O)Nc1cccc(OC(=O)NC)c1
T/C (endpoint: mean survival time, dose: 100.0 mg/kg/injection, schedule: Q01DX001 (ip), vehicle: saline with Tween-80): 100 % of control
T/C (endpoint: mean survival time, dose: 200.0 mg/kg/injection, schedule: Q01DX001 (ip), vehicle: saline with Tween-80): 97 % of control
T/C (endpoint: mean survival time, dose: 400.0 mg/kg/injection, schedule: Q01DX001 (ip), vehicle: saline with Tween-80): 97 % of control

c1c(N2CC2)cc(N2CC2)cc1N1CC1
T/C (endpoint: median survival time, dose: 100.0 mg/kg/injection, schedule: Q01DX009 (ip), vehicle: Klucel (hydroxypropylcellulose) (HPC)): 108 % of control
T/C (endpoint: median survival time, dose: 200.0 mg/kg/injection, schedule: Q01DX009 (ip), vehicle: Klucel (hydroxypropylcellulose) (HPC)): 97 % of control
T/C (endpoint: median survival time, dose: 400.0 mg/kg/injection, schedule: Q01DX009 (ip), vehicle: Klucel (hydroxypropylcellulose) (HPC)): 92 % of control

O=S(O)c1ncnc2nc[nH]c12
T/C (endpoint: mean survival time, dose: 100.0 mg/kg/injection, schedule: Q04DX003 (ip), vehicle: saline): 101 % of control
T/C (endpoint: mean survival time, dose: 200.0 mg/kg/injection, schedule: Q04DX003 (ip), vehicle: saline): 106 % of control
T/C (endpoint: mean survival time, dose: 400.0 mg/kg/injection, schedule: Q04DX003 (ip), vehicle: saline): 95 % of control

O=C(CCCCl)CC(O)(C(F)(F)Cl)C(F)(F)Cl
T/C [1]: 104 % of control
T/C [2]: 102 % of control

COc1ccc(NC(=O)C2C3C=CC(C3)C2C(=O)Nc2ccc(OC)cc2)cc1 (stereo not drawn)
T/C [1]: 100 % of control
T/C [2]: 87 % of control
T/C (endpoint: mean survival time, dose: 400.0 mg/kg/injection, schedule: Q04DX003 (ip), vehicle: saline with Tween-80): 91 % of control

CCCCC[C@H](O)/C=C/[C@H]1[C@H](O)CC(=O)[C@@H]1C/C=C\CCCC(=O)O
T/C (endpoint: mean survival time, dose: 0.37 mg/kg/injection, schedule: Q04DX002 (ip), vehicle: Klucel (hydroxypropylcellulose) (HPC)): 100 % of control
T/C (endpoint: mean survival time, dose: 0.75 mg/kg/injection, schedule: Q04DX002 (ip), vehicle: Klucel (hydroxypropylcellulose) (HPC)): 103 % of control
T/C (endpoint: mean survival time, dose: 1.5 mg/kg/injection, schedule: Q04DX002 (ip), vehicle: Klucel (hydroxypropylcellulose) (HPC)): 111 % of control
T/C (endpoint: mean survival time, dose: 3.0 mg/kg/injection, schedule: Q04DX002 (ip), vehicle: Klucel (hydroxypropylcellulose) (HPC)): 118 % of control
T/C (endpoint: mean survival time, dose: 6.0 mg/kg/injection, schedule: Q04DX002 (ip), vehicle: Klucel (hydroxypropylcellulose) (HPC)): 96 % of control
T/C (endpoint: mean survival time, dose: 12.0 mg/kg/injection, schedule: Q04DX002 (ip), vehicle: Klucel (hydroxypropylcellulose) (HPC)): 96 % of control
T/C (endpoint: mean survival time, dose: 24.0 mg/kg/injection, schedule: Q04DX002 (ip), vehicle: Klucel (hydroxypropylcellulose) (HPC)): 100 % of control
T/C (endpoint: mean survival time, dose: 25.0 mg/kg/injection, schedule: Q04DX002 (ip), vehicle: saline with Tween-80): 98 % of control
T/C (endpoint: mean survival time, dose: 50.0 mg/kg/injection, schedule: Q04DX002 (ip), vehicle: saline with Tween-80): 98 % of control
T/C (endpoint: mean survival time, dose: 100.0 mg/kg/injection, schedule: Q04DX002 (ip), vehicle: saline with Tween-80): 105 % of control
T/C (endpoint: mean survival time, dose: 200.0 mg/kg/injection, schedule: Q04DX002 (ip), vehicle: saline with Tween-80): 102 % of control
T/C (endpoint: mean survival time, dose: 400.0 mg/kg/injection, schedule: Q04DX002 (ip), vehicle: saline with Tween-80): 98 % of control

Cc1ccc(S(=O)(=O)NC(CO)C(=O)O)cc1 (stereo not drawn)
T/C (endpoint: mean survival time, dose: 37.5 mg/kg/injection, schedule: Q01DX009 (ip), vehicle: saline): 96 % of control
T/C (endpoint: mean survival time, dose: 75.0 mg/kg/injection, schedule: Q01DX001 (ip), vehicle: saline): 103 % of control
T/C (endpoint: mean survival time, dose: 75.0 mg/kg/injection, schedule: Q01DX009 (ip), vehicle: saline): 98 % of control
T/C (endpoint: mean survival time, dose: 75.0 mg/kg/injection, schedule: Q04DX003 (ip), vehicle: saline): 102 % of control
T/C (endpoint: mean survival time, dose: 150.0 mg/kg/injection, schedule: Q01DX001 (ip), vehicle: saline): 92 % of control
T/C (endpoint: mean survival time, dose: 150.0 mg/kg/injection, schedule: Q01DX009 (ip), vehicle: saline): 106 % of control
T/C (endpoint: mean survival time, dose: 150.0 mg/kg/injection, schedule: Q04DX003 (ip), vehicle: saline): 103 % of control
T/C (endpoint: mean survival time, dose: 300.0 mg/kg/injection, schedule: Q01DX001 (ip), vehicle: saline): 98 % of control
T/C (endpoint: mean survival time, dose: 300.0 mg/kg/injection, schedule: Q04DX003 (ip), vehicle: saline): 102 % of control

Cc1cc(C)c(O)c(N=Nc2ccccc2)c1
T/C (endpoint: mean survival time, dose: 100.0 mg/kg/injection, schedule: Q04DX003 (ip), vehicle: saline sonified): 95 % of control
T/C (endpoint: mean survival time, dose: 200.0 mg/kg/injection, schedule: Q04DX003 (ip), vehicle: saline sonified): 93 % of control
T/C (endpoint: mean survival time, dose: 400.0 mg/kg/injection, schedule: Q04DX003 (ip), vehicle: saline sonified): 91 % of control
